Results taken from patent US10259810B2, “N-sulfonylated pyrazolo[3,4-b]pyridin-6-carboxamides and method of use” (AbbVie S.à.r.l., priority 2015, dated 2019).
Read-outs that look alike come from different tables or passages of the source.

Legend:
Assay type in all cases: cell-based
[1] = biological target: T1, ΔF508-CFTR (Homo sapiens, UniProt P13569, DEL508-508); assay: CFTR cell surface levels using HRP-tagged ΔF508-CFTR expressing CFBE cells, in the presence of a co-corrector; conditions: HRP-tagged ΔF508-CFTR CFBE cells, in the presence of 3 μM co-corrector; for EC50: read-out: EC50
T1 construct: host or cells: CFBE41o-, doxycycline-inducible
T1 sequence (P13569 with tags, fused parts or gaps DEL508-508): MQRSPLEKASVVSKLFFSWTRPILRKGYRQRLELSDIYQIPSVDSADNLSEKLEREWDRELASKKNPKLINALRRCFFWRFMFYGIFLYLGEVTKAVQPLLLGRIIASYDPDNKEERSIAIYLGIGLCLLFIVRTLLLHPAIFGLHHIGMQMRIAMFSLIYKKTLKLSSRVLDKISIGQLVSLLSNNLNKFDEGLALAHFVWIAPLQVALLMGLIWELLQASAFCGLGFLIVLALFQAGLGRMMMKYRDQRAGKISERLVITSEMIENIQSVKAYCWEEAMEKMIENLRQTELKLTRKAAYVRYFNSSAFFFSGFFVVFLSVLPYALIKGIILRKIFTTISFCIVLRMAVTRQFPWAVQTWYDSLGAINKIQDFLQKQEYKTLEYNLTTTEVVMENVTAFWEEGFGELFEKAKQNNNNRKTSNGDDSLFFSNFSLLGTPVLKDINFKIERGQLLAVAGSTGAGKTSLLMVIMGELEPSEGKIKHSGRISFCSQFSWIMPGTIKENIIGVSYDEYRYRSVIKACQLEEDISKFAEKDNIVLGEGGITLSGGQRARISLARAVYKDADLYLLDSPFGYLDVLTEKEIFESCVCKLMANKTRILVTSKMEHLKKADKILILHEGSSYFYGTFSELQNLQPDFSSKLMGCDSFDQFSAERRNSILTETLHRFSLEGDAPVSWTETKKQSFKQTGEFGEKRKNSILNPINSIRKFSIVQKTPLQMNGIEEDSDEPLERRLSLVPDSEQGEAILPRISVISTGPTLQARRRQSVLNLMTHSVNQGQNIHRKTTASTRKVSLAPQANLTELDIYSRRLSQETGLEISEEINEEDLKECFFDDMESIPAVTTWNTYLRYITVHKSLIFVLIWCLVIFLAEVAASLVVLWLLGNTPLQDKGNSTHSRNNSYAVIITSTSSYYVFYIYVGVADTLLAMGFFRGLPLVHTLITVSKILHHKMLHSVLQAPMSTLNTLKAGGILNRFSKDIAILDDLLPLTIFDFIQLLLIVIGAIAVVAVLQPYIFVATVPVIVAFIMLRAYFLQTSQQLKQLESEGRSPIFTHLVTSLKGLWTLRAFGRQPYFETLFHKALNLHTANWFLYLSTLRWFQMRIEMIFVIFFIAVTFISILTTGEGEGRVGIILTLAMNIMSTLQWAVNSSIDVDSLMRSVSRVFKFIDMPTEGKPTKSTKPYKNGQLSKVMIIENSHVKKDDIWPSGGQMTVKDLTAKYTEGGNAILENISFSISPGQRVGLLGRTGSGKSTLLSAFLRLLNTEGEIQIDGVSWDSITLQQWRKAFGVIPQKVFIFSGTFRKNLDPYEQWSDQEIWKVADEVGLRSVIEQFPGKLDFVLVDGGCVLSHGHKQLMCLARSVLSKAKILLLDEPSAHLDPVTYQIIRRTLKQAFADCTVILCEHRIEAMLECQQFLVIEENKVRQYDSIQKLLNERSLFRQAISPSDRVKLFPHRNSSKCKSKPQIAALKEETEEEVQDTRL
Procedure, shortened: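 Chemiluminescent read-out of surface HRP (15 min, dark) after PBS washes. Activity is normalized as 100×(sample−DMSO)/(3 μM co-corrector alone−DMSO).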

[2] = biological target: T1, ΔF508-CFTR; assay: CFTR cell surface levels using HRP-tagged ΔF508-CFTR expressing CFBE cells, intrinsic corrector capacity; design: % Activation: concentration or dose not given beside the values; conditions: HRP-tagged ΔF508-CFTR expressing CFBE41o- cells, compound alone (intrinsic corrector capacity), 20 hours at 33° C.; for EC50: read-out: EC50
Procedure, shortened: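 Read-out: chemiluminescent HRP activity of ECL4-HRP-tagged ΔF508-CFTR at the cell surface, 15 min substrate in dark. Normalized as 100×(sample−DMSO)/(positive control−DMSO).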

[3] = biological target: T2, CFTR ΔF508 (Homo sapiens, UniProt P13569, DEL508-508); assay: Chronic TECC assay, primary bronchial epithelial cells of CF patients homozygous for CFTR ΔF508 (corrector, co-corrector and potentiator); conditions: chronic TECC; for % Activity at 1 μM (Ieq*) / % Activity at 1 μM (AUC**): test compound at 1 μM
T2 construct: bronchial epithelial cells isolated from CF patients homozygous for the CFTR ΔF508 mutation; McGill University; Asterand; University of North Carolina hAEC-CF; host or cells: primary human bronchial epithelial cells from CF patients homozygous for ΔF508, differentiated at air-liquid interface
T2 sequence (P13569 with tags, fused parts or gaps DEL508-508): as above
Method: Primary Bronchial Epithelial Cells Protocol
The TECC (Tranepithelial Clamp Circuit, EP-design) assay measures the functionality of the cystic fibrosis Transmembrane Conductance regulator (CFTR) by measuring the short circuit current (Isc) generated over the basolateral and apical membrane of lung epithelial cells. In TECC the transepithelial potential PD and transepithelial resistance (Rt) are measured in an open circuit and transformed to Ieq using Ohm's law. 24 Wells can be measured simultaneously allowing a higher throughput compared to Ussing chambers.
For this purpose, bronchial epithelial cells isolated from CF patients homozygous for the CFTR ΔF508 mutation (hAEC-CF, Epithelix, Geneva, Switzerland; McGill University, Montreal, Qc; Asterand, Detroit, Mich.; University of North Carolina, Chapel Hill, N.C.) are plated on type IV collagen-coated Transwell® supports (Costar).
For electrophysiological recording of the “chronic” experiments, the human airway epithelia are mounted in the TECC heating plate for electrophysiological measurement and kept at 37° C. The epithelia are bathed in a NaCl-Ringer solution (120 mM NaCl, 25 mM NaHCO3, 1.2 mM CaCl2, 1.2 mM MgCl2, 0.8 mM KH2PO4, 0.8 mM K2HPO4, pH 7.4, 5 mM glucose) on both the basolateral and apical sides. Test compounds (corrector, co-corrector, 4-[(2R,4R)-4-({[1-(2,2-difluoro-1,3-benzodioxol-5-yl)cyclopropyl]carbonyl}amino)-7-(difluoromethoxy)-3,4-dihydro-2H-chromen-2-yl]benzoic acid, and potentiator, N-(3-carbamoyl-5,5,7,7-tetramethyl-4,7-dihydro-5H-thieno[2,3-c]pyran-2-yl)-1H-pyrazole-5-carboxamide), are re-added to the recording solution prior to measurement. […] Apical amiloride is used to inhibit the endogenous ENaC currents while forskolin is applied on both apical and basolateral side to stimulate CFTR. Measurements are done during a 20 minute timeframe with recordings every 2 minutes. The increase in Ieq is used as a measure for the increased CFTR activity, EC50 values can be generated by measuring impact of different concentrations of compound on Ieq on primary cells, for this purpose each transwell is treated with a different compound concentration. […] Raw data were normalized to percentage activity values using the equation: 100×(Sample−Negative control)/(Positive control−Negative Control).

[4] = Ieq = calculations based on the maximum current, read-out: EC50 (nM) (Ieq*)
[5] = Ieq = calculations based on the maximum current
[6] = AUC = full area under the curve upon forskolin stimulation, read-out: EC50 (nM) (AUC**)
[7] = AUC = full area under the curve upon forskolin stimulation

Row | Compound | % Activation [1] | EC50 [1] | % Activation [2] | EC50 [2] | EC50 [3, 4] | % Activity at 1 μM (Ieq*) [3, 5] | EC50 [3, 6] | % Activity at 1 μM (AUC**) [3, 7]
1 | CC(C)c1nn(-c2cccc(N(C)C)c2)c2nc(C(=O)NS(C)(=O)=O)cc(-c3ccc(N(C)C4CCOCC4)cc3)c12 [Compound 96, 1-[3-(dimethylamino)phenyl]-N-(methanesulfonyl)-4-{4-[methyl(oxan-4-yl)amino]phenyl}-3-(propan-2-yl)-1H-pyrazolo[3,4-b]pyridine-6-carboxamide] | 707.5% | 473 nM | 406.6% | 367 nM | < 30 nM | 310% | – | –
2 | CC(C)c1nn(-c2cccc(N3CCCC3)c2)c2nc(C(=O)NS(C)(=O)=O)cc(-c3ccc(N(C)C4CCOCC4)cc3)c12 [Compound 110, N-(methanesulfonyl)-4-{4-[methyl(oxan-4-yl)amino]phenyl}-3-(propan-2-yl)-1-[3-(pyrrolidin-1-yl)phenyl]-1H-pyrazolo[3,4-b]pyridine-6-carboxamide] | 665.7% | 336 nM | 451.8% | 358 nM | < 30 nM | 170% | – | –
3 | CCS(=O)(=O)NC(=O)c1cc(-c2ccc(N3CCOCC3)cc2)c2c(C)nn(-c3ccc(F)cc3F)c2n1 [Compound 113, 1-(2,4-difluorophenyl)-N-(ethanesulfonyl)-3-methyl-4-[4-(morpholin-4-yl)phenyl]-1H-pyrazolo[3,4-b]pyridine-6-carboxamide] | 455.63% | 235 nM | 262.33% | 464 nM | 32 nM | 310% | – | –
4 | COC1CCN(c2cc(C(=O)NS(C)(=O)=O)nc3c2c(C(C)C)nn3-c2cccc(C)c2)CC1 [Compound 117, N-(methanesulfonyl)-4-(4-methoxypiperidin-1-yl)-1-(3-methylphenyl)-3-(propan-2-yl)-1H-pyrazolo[3,4-b]pyridine-6-carboxamide] | 417.92% | 200 nM | 281.88% | 333 nM | > 1000 nM | 81% | – | –
5 | CC(C)c1nn(C2CCCCC2)c2nc(C(=O)NS(C)(=O)=O)cc(-c3cnc(N4CCC(C#N)CC4)nc3)c12 [Compound 119, 4-[2-(4-cyanopiperidin-1-yl)pyrimidin-5-yl]-1-cyclohexyl-N-(methanesulfonyl)-3-(propan-2-yl)-1H-pyrazolo[3,4-b]pyridine-6-carboxamide] | 389.93% | 331 nM | 188.53% | 520 nM | > 1000 nM | 157% | – | –
6 | COCCN(CCOC)c1ccc(-c2cc(C(=O)NS(C)(=O)=O)nc3c2c(C(C)C)nn3C2CCCCC2)cn1 [Compound 121, 4-{6-[bis(2-methoxyethyl)amino]pyridin-3-yl}-1-cyclohexyl-N-(methanesulfonyl)-3-(propan-2-yl)-1H-pyrazolo[3,4-b]pyridine-6-carboxamide] | 368.6% | 282 nM | 159.13% | 653 nM | 74 nM | 206% | – | –
7 | CC(C)c1nn(-c2cccc(N3CCOCC3)n2)c2nc(C(=O)NS(C)(=O)=O)cc(-c3ccc(N4CCOCC4)cc3)c12 [Compound 128, N-(methanesulfonyl)-4-[4-(morpholin-4-yl)phenyl]-1-[6-(morpholin-4-yl)pyridin-2-yl]-3-(propan-2-yl)-1H-pyrazolo[3,4-b]pyridine-6-carboxamide] | 529.57% | 252 nM | 357.47% | 516 nM | < 30 nM | 235% | – | –
8 | CC(C)c1nn(-c2ccnc(N3CCOCC3)c2)c2nc(C(=O)NS(C)(=O)=O)cc(-c3ccc(N4CCOCC4)cc3)c12 [Compound 136, N-(methanesulfonyl)-4-[4-(morpholin-4-yl)phenyl]-1-[2-(morpholin-4-yl)pyridin-4-yl]-3-(propan-2-yl)-1H-pyrazolo[3,4-b]pyridine-6-carboxamide] | 428.1% | 72.3 nM | 262.38% | 155 nM | – | – | 23.5 nM | 233.2%
9 | COCC1CCN(c2cc(C(=O)NS(C)(=O)=O)nc3c2c(C(C)C)nn3-c2cccc(N(C)C)c2)CC1 [Compound 144, 1-[3-(dimethylamino)phenyl]-N-(methanesulfonyl)-4-[4-(methoxymethyl)piperidin-1-yl]-3-(propan-2-yl)-1H-pyrazolo[3,4-b]pyridine-6-carboxamide] | 674.7% | 243 nM | 531.6% | 417 nM | 12 nM | 350% | – | –
10 | COCCS(=O)(=O)NC(=O)c1cc(N2CCC(OC)CC2)c2c(C3CCC3)nn(-c3ccccc3)c2n1 [Compound 146, 3-cyclobutyl-N-(2-methoxyethanesulfonyl)-4-(4-methoxypiperidin-1-yl)-1-phenyl-1H-pyrazolo[3,4-b]pyridine-6-carboxamide] | 357.55% | 96.9 nM | 201.23% | 356 nM | 30 nM | 310% | – | –
11 | COC1CCN(c2cc(C(=O)NS(C)(=O)=O)nc3c2c(C(C)C)nn3C2CCCCC2)CC1 [Compound 150, 1-cyclohexyl-N-(methanesulfonyl)-4-(4-methoxypiperidin-1-yl)-3-(propan-2-yl)-1H-pyrazolo[3,4-b]pyridine-6-carboxamide] | 380.65% | 318 nM | 220.98% | 576 nM | 100 nM | – | – | –
12 | CCCOC1CCN(c2cc(C(=O)NS(C)(=O)=O)nc3c2c(C2CCC2)nn3-c2ccccc2)CC1 [Compound 152, 3-cyclobutyl-N-(methanesulfonyl)-1-phenyl-4-(4-propoxypiperidin-1-yl)-1H-pyrazolo[3,4-b]pyridine-6-carboxamide] | 409.9% | 108 nM | 242.35% | 357 nM | – | – | 16 nM | 482.77%
13 | COC1CCN(c2cc(C(=O)NS(C)(=O)=O)nc3c2c(C(C)C)nn3-c2cccc(N(C)C)c2)CC1 [Compound 155, 1-[3-(dimethylamino)phenyl]-N-(methanesulfonyl)-4-(4-methoxypiperidin-1-yl)-3-(propan-2-yl)-1H-pyrazolo[3,4-b]pyridine-6-carboxamide] | 555.45% | 230 nM | 439.5% | 454 nM | – | – | 4 nM | 200%
14 | CC(C)c1nn(-c2ccnc(N3CCCC3)c2)c2nc(C(=O)NS(C)(=O)=O)cc(-c3ccc(N4CCC(C#N)CC4)nc3)c12 [Compound 158, 4-[6-(4-cyanopiperidin-1-yl)pyridin-3-yl]-N-(methanesulfonyl)-3-(propan-2-yl)-1-[2-(pyrrolidin-1-yl)pyridin-4-yl]-1H-pyrazolo[3,4-b]pyridine-6-carboxamide] | 512.45% | 267 nM | 359.1% | 622 nM | – | – | – | 370.9%
